Counter-ions that a name gives are not always drawn.
Assays:
[1] = target: Bile salt export pump (Homo sapiens, UniProt O95342); assay: Inhibition of human BSEP overexpressed in Sf9 cell membrane vesicles assessed as uptake of [3H]-taurocholate in presence of ATP measured after 15 to 20 mins by membrane vesicle transport assay; format: ADME, cell-based
[2] = target: ATP-binding cassette sub-family C member 2 (Homo sapiens, UniProt Q92887); assay: Inhibition of human MRP2 overexpressed in Sf9 cell membrane vesicles assessed as uptake of [3H]-estradiol-17beta-D-glucuronide in presence of ATP and GSH measured after 20 mins by membrane vesicle transport assay
[3] = target: ATP-binding cassette sub-family C member 3 (Homo sapiens, UniProt O15438); assay: Inhibition of human MRP3 overexpressed in Sf9 insect cell membrane vesicles assessed as uptake of [3H]-estradiol-17beta-D-glucuronide in presence of ATP and GSH measured after 10 mins by membrane vesicle transport assay; format: ADME, cell-based
[4] = target: T1, ATP-binding cassette sub-family C member 4 (Homo sapiens, UniProt O15439); assay: Inhibition of human MRP4 overexpressed in Sf9 cell membrane vesicles assessed as uptake of [3H]-estradiol-17beta-D-glucuronide in presence of ATP and GSH measured after 20 mins by membrane vesicle transport assay; format: ADME, cell-based
T1 sequence (O15439 whole entry): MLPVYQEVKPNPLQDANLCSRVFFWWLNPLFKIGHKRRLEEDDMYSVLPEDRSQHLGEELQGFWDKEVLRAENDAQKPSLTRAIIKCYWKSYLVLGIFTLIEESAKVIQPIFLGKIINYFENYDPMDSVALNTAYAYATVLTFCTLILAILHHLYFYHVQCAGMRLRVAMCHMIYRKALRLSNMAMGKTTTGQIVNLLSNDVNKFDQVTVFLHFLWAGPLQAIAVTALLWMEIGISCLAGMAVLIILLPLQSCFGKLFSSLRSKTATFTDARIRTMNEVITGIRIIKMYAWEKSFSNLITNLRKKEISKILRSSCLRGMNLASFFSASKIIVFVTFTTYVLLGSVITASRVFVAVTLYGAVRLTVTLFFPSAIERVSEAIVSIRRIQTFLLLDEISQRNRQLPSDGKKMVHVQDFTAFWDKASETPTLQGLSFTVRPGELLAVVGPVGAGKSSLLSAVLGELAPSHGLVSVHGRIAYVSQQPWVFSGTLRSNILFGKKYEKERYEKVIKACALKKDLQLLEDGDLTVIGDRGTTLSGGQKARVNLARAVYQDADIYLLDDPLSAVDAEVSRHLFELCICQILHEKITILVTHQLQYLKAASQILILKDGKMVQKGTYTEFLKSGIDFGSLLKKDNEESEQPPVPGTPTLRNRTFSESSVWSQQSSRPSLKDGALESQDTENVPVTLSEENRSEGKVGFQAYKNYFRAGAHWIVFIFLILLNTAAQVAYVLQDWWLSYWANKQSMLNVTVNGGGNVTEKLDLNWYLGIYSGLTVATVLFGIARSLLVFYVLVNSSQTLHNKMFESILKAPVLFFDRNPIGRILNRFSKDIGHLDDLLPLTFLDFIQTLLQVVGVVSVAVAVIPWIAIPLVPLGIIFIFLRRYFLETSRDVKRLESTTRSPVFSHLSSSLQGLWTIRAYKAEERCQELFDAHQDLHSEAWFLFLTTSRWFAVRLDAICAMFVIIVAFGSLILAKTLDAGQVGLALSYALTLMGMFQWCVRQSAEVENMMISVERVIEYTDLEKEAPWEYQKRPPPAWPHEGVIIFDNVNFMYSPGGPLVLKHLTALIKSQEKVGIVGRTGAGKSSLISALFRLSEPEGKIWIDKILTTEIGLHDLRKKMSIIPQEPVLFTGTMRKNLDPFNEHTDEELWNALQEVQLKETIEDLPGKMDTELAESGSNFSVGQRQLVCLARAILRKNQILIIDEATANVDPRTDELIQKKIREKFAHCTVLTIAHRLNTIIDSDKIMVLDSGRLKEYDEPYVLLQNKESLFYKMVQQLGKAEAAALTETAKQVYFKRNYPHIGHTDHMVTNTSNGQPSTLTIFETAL

Chain of ATP-binding cassette sub-family C member 3 (O15438 whole entry): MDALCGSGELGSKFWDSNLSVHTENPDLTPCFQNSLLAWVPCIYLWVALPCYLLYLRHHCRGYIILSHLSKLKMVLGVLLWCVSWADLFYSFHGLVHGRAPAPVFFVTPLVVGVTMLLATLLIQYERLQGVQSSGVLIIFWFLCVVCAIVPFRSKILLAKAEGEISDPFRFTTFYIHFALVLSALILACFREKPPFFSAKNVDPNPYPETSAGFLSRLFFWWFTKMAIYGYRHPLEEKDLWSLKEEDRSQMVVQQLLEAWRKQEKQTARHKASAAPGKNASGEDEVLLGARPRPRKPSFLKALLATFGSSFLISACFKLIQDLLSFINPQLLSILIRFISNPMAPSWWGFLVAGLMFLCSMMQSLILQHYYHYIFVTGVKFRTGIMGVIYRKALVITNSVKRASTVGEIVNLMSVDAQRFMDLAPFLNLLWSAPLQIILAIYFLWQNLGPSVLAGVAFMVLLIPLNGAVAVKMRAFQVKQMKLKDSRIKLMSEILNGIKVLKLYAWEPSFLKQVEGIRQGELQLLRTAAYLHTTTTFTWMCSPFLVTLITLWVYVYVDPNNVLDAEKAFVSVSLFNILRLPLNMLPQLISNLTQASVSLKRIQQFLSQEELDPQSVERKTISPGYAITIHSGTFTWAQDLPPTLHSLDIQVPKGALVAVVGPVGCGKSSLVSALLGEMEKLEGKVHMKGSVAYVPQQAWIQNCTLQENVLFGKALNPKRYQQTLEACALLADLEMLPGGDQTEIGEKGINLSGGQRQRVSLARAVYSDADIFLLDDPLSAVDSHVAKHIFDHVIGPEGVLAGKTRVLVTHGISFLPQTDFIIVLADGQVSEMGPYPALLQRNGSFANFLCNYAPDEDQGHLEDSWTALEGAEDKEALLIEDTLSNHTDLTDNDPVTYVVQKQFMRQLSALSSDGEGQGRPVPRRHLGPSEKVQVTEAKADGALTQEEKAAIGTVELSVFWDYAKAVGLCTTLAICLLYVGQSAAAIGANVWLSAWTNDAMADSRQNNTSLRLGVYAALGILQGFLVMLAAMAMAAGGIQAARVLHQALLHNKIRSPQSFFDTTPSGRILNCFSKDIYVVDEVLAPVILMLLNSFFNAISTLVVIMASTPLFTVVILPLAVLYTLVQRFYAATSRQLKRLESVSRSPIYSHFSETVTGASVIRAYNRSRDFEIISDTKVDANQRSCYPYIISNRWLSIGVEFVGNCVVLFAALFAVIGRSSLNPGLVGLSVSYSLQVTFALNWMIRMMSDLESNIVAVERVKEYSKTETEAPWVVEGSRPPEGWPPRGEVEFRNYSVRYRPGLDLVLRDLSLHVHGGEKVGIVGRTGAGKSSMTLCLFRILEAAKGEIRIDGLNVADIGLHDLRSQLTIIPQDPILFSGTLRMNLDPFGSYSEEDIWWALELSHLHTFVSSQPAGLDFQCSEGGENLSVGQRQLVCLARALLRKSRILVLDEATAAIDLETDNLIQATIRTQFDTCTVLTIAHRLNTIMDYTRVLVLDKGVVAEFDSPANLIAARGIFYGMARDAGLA
Chain of ATP-binding cassette sub-family C member 2 (Q92887 whole entry): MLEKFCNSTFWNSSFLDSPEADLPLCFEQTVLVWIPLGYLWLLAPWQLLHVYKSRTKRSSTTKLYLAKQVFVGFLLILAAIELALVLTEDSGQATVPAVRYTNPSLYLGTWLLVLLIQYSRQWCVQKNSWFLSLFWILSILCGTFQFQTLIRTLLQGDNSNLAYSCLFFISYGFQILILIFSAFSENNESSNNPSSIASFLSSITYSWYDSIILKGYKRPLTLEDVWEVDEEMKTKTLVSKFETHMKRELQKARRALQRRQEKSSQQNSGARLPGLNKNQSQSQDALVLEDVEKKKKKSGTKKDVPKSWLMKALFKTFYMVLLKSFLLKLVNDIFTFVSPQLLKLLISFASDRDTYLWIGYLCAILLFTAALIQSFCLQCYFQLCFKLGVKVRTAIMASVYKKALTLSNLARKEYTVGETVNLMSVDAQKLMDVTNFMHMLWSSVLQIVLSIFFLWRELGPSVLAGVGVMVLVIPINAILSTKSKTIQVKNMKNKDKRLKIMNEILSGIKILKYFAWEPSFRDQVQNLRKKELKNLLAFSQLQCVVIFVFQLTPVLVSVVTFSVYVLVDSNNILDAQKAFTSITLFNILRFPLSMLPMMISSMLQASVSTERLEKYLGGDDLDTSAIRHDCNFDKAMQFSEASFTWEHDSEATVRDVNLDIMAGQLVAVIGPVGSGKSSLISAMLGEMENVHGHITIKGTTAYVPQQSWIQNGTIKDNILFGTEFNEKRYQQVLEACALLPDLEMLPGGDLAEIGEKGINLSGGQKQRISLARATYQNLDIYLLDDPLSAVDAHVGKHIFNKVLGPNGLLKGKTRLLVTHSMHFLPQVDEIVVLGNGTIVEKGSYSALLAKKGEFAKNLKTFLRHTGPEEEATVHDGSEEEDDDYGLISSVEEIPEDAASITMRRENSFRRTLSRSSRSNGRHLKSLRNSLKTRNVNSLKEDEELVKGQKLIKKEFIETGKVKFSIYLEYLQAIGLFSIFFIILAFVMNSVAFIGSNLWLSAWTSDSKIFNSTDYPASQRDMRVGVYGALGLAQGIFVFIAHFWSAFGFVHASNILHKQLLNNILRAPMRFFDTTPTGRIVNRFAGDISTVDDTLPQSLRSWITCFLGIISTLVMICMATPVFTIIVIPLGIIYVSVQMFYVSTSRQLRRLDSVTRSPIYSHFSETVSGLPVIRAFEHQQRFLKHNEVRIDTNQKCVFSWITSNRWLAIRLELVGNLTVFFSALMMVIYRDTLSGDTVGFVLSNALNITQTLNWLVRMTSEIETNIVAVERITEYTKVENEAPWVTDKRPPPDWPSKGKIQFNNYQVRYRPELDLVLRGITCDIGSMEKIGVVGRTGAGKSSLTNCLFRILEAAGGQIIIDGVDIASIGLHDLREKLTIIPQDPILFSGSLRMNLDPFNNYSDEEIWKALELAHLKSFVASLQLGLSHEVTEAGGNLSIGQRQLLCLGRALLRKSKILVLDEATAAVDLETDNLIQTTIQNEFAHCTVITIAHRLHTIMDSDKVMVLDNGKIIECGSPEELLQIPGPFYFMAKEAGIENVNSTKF
Chain of Bile salt export pump (O95342 whole entry): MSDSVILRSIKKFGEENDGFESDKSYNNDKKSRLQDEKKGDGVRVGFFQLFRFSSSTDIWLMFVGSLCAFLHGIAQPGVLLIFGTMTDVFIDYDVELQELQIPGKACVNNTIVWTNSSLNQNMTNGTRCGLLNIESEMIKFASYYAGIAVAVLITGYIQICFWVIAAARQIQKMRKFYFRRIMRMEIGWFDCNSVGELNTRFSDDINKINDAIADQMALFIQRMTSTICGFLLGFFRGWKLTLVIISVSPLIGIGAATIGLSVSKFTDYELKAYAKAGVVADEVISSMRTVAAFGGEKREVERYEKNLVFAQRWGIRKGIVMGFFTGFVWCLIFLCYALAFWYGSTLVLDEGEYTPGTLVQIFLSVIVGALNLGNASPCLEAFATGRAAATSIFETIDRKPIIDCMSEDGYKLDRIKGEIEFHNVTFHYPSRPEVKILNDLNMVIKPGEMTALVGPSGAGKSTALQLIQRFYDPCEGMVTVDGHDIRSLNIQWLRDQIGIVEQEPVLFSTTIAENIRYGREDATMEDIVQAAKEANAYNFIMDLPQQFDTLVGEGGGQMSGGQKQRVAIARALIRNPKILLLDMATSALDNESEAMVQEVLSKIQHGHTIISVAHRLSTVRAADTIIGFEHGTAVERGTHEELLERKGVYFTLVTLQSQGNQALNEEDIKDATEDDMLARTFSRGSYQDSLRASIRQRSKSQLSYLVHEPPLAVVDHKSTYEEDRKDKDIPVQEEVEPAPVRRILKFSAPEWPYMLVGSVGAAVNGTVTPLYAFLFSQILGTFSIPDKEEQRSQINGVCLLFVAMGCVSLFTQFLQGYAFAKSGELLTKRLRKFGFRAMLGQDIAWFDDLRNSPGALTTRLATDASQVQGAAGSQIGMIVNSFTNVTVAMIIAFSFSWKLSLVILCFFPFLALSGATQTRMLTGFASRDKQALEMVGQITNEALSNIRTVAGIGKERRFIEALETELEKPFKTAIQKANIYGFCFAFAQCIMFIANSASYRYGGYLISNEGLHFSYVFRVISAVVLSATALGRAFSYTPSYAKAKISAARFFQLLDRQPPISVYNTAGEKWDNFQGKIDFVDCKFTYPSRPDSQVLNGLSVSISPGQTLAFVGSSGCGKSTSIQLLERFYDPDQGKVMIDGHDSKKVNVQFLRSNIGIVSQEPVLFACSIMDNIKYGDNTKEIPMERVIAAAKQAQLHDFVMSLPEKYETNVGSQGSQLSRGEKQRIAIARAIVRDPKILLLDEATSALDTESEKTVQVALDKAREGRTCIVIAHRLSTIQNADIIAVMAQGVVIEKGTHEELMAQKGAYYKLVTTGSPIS

Compound	IC50 [1] [µM]	IC50 [2] [µM]	IC50 [3] [µM]	IC50 [4] [µM]
NS(=O)(=O)c1cc(C2(O)NC(=O)c3ccccc32)ccc1Cl (configuration not stated) [CHLORTHALIDONE]	> 133	> 133	> 133	> 133
O=C(NCCNCC(O)COc1ccc(O)cc1)N1CCOCC1 (configuration not stated) [XAMOTEROL]	> 133	> 133	> 133	> 133
CN(C)/N=N/c1[nH]cnc1C(N)=O [DACARBAZINE]	> 133	> 133	> 133	> 133
C[C@@H]1CN(c2c(F)c(N)c3c(=O)c(C(=O)O)cn(C4CC4)c3c2F)C[C@H](C)N1 [SPARFLOXACIN]	> 133	> 133	> 133	> 133
CN1C(C(=O)Nc2ccccn2)=C(O)c2ccccc2S1(=O)=O [PIROXICAM]	> 133	> 133	> 133	> 133
Nc1nc(=O)n([C@@H]2CS[C@H](CO)O2)cc1F [EMTRICITABINE]	> 133	> 133	> 133	> 133
Cc1cccn2c(=O)c(-c3nnn[nH]3)cnc12 [PEMIROLAST POTASSIUM]	> 133	> 133	> 133	> 133
O=c1[nH]cc(F)c(=O)[nH]1 [FLUOROURACIL]	> 133	> 133	> 133	> 133
CCCCC(=O)N(Cc1ccc(-c2ccccc2-c2nnn[nH]2)cc1)[C@H](C(=O)O)C(C)C	> 133	> 133	> 133	> 133
COc1ccc2cccc(CCNC(C)=O)c2c1 [AGOMELATINE]	> 133	> 133	> 133	> 133
C[C@H]1[C@H](OC(=O)CCC(=O)O)O[C@@H]2O[C@@]3(C)CC[C@H]4[C@H](C)CC[C@@H]1[C@@]24OO3 [ARTESUNATE]	> 133	> 133	> 133	> 133
CNNCc1ccc(C(=O)NC(C)C)cc1 [PROCARBAZINE HYDROCHLORIDE]	> 133	> 133	> 133	> 133
COc1ccc2c3c1O[C@H]1C[C@@H](O)C=C[C@@]31CCN(C)C2 [GALANTAMINE]	> 133	> 133	> 133	> 133
Cc1c(C(=O)NN2CCCCC2)nn(-c2ccc(Cl)cc2Cl)c1-c1ccc(Cl)cc1 [RIMONABANT]	25	> 133	> 133	> 133
CC1(C)S[C@@H]2[C@H](NC(=O)[C@H](N)c3ccc(O)cc3)C(=O)N2[C@H]1C(=O)O [AMOXICILLIN]	> 133	> 133	> 133	> 133
Nc1nc(Cl)nc2c1ncn2[C@@H]1O[C@H](CO)[C@@H](O)[C@@H]1F [CLOFARABINE]	> 133	> 133	> 133	> 133
NC1=NC(=O)C(c2ccccc2)O1 (configuration not stated) [PEMOLINE]	> 133	> 133	> 133	> 133
Cc1cc(NC(=O)C2=C(O)c3ccccc3S(=O)(=O)N2C)no1 [ISOXICAM]	> 133	> 133	> 133	> 133
O=C1Cc2cc(CCN3CCN(c4nsc5ccccc45)CC3)c(Cl)cc2N1 [ZIPRASIDONE MESYLATE]	> 133	> 133	> 133	> 133

Compound	IC50 [1] [µM]	IC50 [2] [µM]	IC50 [3] [µM]	IC50 [4] [µM]
CCOC(=O)[C@H](CCc1ccccc1)N[C@@H](C)C(=O)N1[C@H](C(=O)O)C[C@@H]2CCC[C@@H]21	> 133	> 133	> 133	> 133
Cc1ccc(-c2ncc(Cl)cc2-c2ccc(S(C)(=O)=O)cc2)cn1 [ETORICOXIB]	53.2	> 133	> 133	53
CC(CN1c2ccccc2Sc2ccccc21)N(C)C (configuration not stated) [PROMETHAZINE]	> 133	> 133	> 133	> 133
CN1CCN(C2=Nc3cc(Cl)ccc3Nc3ccccc32)CC1 [CLOZAPINE]	> 133	> 133	> 133	> 133
CN1CCN(C(=O)OC2c3nccnc3C(=O)N2c2ccc(Cl)cn2)CC1 (configuration not stated) [ZOPICLONE]	> 133	> 133	> 133	> 133
CC(C)NCC(O)c1ccc(NS(C)(=O)=O)cc1 (configuration not stated) [SOTALOL]	> 133	> 133	> 133	> 133
CN(Cc1cnc2nc(N)nc(N)c2n1)c1ccc(C(=O)N[C@@H](CCC(=O)O)C(=O)O)cc1 [METHOTREXATE]	> 133	> 133	> 133	> 133
CC(=O)SCC(Cc1ccccc1)C(=O)NCC(=O)OCc1ccccc1 (configuration not stated) [RACECADOTRIL]	20.3	> 133	99	> 133
CC[C@H]1CN2CCc3cc(OC)c(OC)cc3[C@@H]2C[C@@H]1C[C@H]1NCCc2cc(OC)c(OC)cc21 [EMETINE]	> 133	> 133	> 133	> 133
CC[C@H](C)C(=O)O[C@H]1C[C@H](O)C=C2C=C[C@H](C)[C@H](CC[C@@H](O)C[C@@H](O)CC(=O)O)[C@H]21 [PRAVASTATIN SODIUM]	> 133	> 133	125	> 133
O=c1[nH]c2ccccc2n1CCCN1CCC(n2c(=O)[nH]c3cc(Cl)ccc32)CC1 [DOMPERIDONE]	> 133	> 133	> 133	> 133
CC[C@H](C)[C@@H]1NC(=O)[C@H](Cc2ccc(O)cc2)NC(=O)[C@@H](N)CSSC[C@@H](C(=O)N2CCC[C@H]2C(=O)N[C@@H](CC(C)C)C(=O)NCC(N)=O)NC(=O)[C@H](CC(N)=O)NC(=O)[C@H](CCC(N)=O)NC1=O	> 133	> 133	> 133	> 133
CC(C)OC(=O)OCOP(=O)(CO[C@H](C)Cn1cnc2c(N)ncnc21)OCOC(=O)OC(C)C [TENOFOVIR DISOPROXIL FUMARATE]	> 133	> 133	> 133	> 133
N=C(N)c1ccc(OCCCCCOc2ccc(C(=N)N)cc2)cc1 [PENTAMIDINE]	> 133	> 133	> 133	> 133
CO/N=C(\C(=O)N[C@@H]1C(=O)N2C(C(=O)OC(C)OC(C)=O)=C(COC(N)=O)CS[C@H]12)c1ccco1 (some centres not stated) [CEFUROXIME AXETIL]	> 133	> 133	> 133	28
Cc1nccn1CC1CCc2c(c3ccccc3n2C)C1=O (configuration not stated) [ONDANSETRON]	> 133	> 133	> 133	> 133
CC(C)C(=O)Nc1ccc([N+](=O)[O-])c(C(F)(F)F)c1 [FLUTAMIDE]	> 133	> 133	> 133	> 133
CCN1CCN(C(=O)N[C@@H](C(=O)N[C@@H]2C(=O)N3[C@@H]2SC(C)(C)[C@@H]3C(=O)O)c2ccccc2)C(=O)C1=O [PIPERACILLIN SODIUM]	> 133	> 133	> 133	> 133
CN(C)CCCC1(c2ccc(F)cc2)OCc2cc(C#N)ccc21 (configuration not stated) [CITALOPRAM]	> 133	> 133	> 133	> 133

— ChEMBL document CHEMBL4028801, “A multifactorial approach to hepatobiliary transporter assessment enables improved therapeutic compound development” (Toxicol Sci, 2013)
